29 compounds from US8710065B2, “Tricyclic inhibitors of kinases” (AbbVie Inc., priority 2011, dated 2014) can be followed below.

The structures appear in SMILES notation. Some results are limits rather than exact numbers.

Broadly, the Ki is a dissociation constant, usually derived from enzyme kinetics or from competition with a known ligand.

For the assay, the target named is T1, GST-tagged-Wee1 kinase (Homo sapiens, UniProt P30291).
T1 construct: purchased Carnabio (Carna Biosciences) 05-177
T1 sequence (P30291 whole entry): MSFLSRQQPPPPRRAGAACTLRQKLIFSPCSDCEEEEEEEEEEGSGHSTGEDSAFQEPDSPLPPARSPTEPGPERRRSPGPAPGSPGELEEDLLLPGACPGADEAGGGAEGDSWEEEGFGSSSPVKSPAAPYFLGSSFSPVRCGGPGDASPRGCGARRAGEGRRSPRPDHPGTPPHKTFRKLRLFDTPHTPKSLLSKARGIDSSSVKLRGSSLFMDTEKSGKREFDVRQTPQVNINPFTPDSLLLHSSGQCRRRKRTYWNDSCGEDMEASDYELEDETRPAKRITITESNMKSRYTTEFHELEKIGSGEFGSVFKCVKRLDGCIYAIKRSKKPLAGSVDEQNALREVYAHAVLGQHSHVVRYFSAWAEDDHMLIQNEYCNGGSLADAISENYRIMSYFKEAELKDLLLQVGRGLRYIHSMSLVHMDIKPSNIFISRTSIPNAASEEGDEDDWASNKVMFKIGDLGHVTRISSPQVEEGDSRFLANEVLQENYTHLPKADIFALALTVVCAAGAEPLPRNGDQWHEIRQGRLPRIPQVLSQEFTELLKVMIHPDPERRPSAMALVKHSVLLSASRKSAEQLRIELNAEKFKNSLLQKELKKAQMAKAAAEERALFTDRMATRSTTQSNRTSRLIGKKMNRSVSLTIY
Kind of assay: Wee1 time-resolved fluorescence equilibrium binding assay (displacement of Oregon Green-labeled ATP-competitive kinase probe). The following applies: read-out: Wee-1 inhibition (Ki). A digest of the protocol:
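Ki values derive from competitive displacement, under equilibrium, of a fast-reversible ATP-site Oregon Green kinase probe from GST-tagged Wee1, detected by time-resolved fluorescence.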
With `CC1(C)CN(C(=O)CO)Cc2cc(Nc3ncc4c(=O)n(-c5c(F)cccc5Cl)c5nccn5c4n3)ccc21` [Example 316, 6-(2-chloro-6-fluorophenyl)-2-{[2-(hydroxyacetyl)-4,4-dimethyl-1,2,3,4-tetrahydroisoquinolin-7-yl]amino}imidazo[1,2-a]pyrimido[5,4-e]pyrimidin-5(6H)-one], the Ki was less than 10 nM.

Regarding `O=c1c2cnc(Nc3ccc(CO)cc3)nc2n2ccnc2n1-c1ccccc1Cl` [Example 87, 6-(2-chlorophenyl)-2-{[4-(hydroxymethyl)phenyl]amino}imidazo[1,2-a]pyrimido[5,4-e]pyrimidin-5(6H)-one], the Ki lay within 10 to 100 nM.

In the case of `CN1CCCC1CCNc1ccc(Nc2ncc3c(=O)n(-c4c(Cl)cccc4Cl)c4nccn4c3n2)cc1` (centres unmarked) [Example 273, 6-(2,6-dichlorophenyl)-2-[(4-{[2-(1-methylpyrrolidin-2-yl)ethyl]amino}phenyl)amino]imidazo[1,2-a]pyrimido[5,4-e]pyrimidin-5(6H)-one], the Ki is less than 10 nM.

Regarding `CS(=O)(=O)N1Cc2cc(Nc3ncc4c(=O)n(-c5c(Cl)cccc5Cl)c5nccn5c4n3)ccc2C2(CC2)C1` [Example 206, 6-(2,6-dichlorophenyl)-2-{[2′-(methylsulfonyl)-2′,3′-dihydro-1′H-spiro[cyclopropane-1,4′-isoquinolin]-7′-yl]amino}imidazo[1,2-a]pyrimido[5,4-e]pyrimidin-5(6H)-one], the Ki was less than 10 nM.

On to `Cc1cc(Nc2ncc3c(=O)n(-c4ccccc4Cl)c4nccn4c3n2)ccc1N1CCNCC1` [Example 104, 6-(2-chlorophenyl)-2-{[3-methyl-4-(piperazin-1-yl)phenyl]amino}imidazo[1,2-a]pyrimido[5,4-e]pyrimidin-5(6H)-one], for which the Ki is less than 10 nM.

Take `O=C(Nc1ccc(Nc2ncc3c(=O)n(-c4ccccc4Cl)c4nccn4c3n2)cc1)C1CCC(O)CC1` (centres unmarked) [Example 59, N-(4-{[6-(2-chlorophenyl)-5-oxo-5,6-dihydroimidazo[1,2-a]pyrimido[5,4-e]pyrimidin-2-yl]amino}phenyl)-4-hydroxycyclohexanecarboxamide]: the inhibition constant (Ki) fell in the range of 10 to 100 nM.

Turning to `O=c1c2cnc(Nc3ccc(N4CCC[C@H]4CN4CCCC4)cc3)nc2n2ccnc2n1-c1ccccc1Cl` [Example 249, 6-(2-chlorophenyl)-2-({4-[(2S)-2-(pyrrolidin-1-ylmethyl)pyrrolidin-1-yl]phenyl}amino)imidazo[1,2-a]pyrimido[5,4-e]pyrimidin-5(6H)-one], the Ki is less than 10 nM.

`NC(=O)C1CCN(c2ccc(Nc3ncc4c(=O)n(-c5ccccc5Cl)c5nccn5c4n3)cc2)CC1` [Example 235, 1-(4-{[6-(2-chlorophenyl)-5-oxo-5,6-dihydroimidazo[1,2-a]pyrimido[5,4-e]pyrimidin-2-yl]amino}phenyl)piperidine-4-carboxamide]: the Ki is less than 10 nM.

Take `O=c1c2cnc(Nc3ccc4c(c3)CC(N3CC[C@H](F)C3)C4)nc2n2ccnc2n1-c1c(F)cccc1Cl` (stereo partly drawn) [Example 256, 6-(2-chloro-6-fluorophenyl)-2-({2-[(3S)-3-fluoropyrrolidin-1-yl]-2,3-dihydro-1H-inden-5-yl}amino)imidazo[1,2-a]pyrimido[5,4-e]pyrimidin-5(6H)-one]: the inhibition constant (Ki) was less than 10 nM.

In the case of `O=C(O)c1ccc(Nc2ncc3c(=O)n(-c4ccccc4Cl)c4nccn4c3n2)cc1` [Example 342, 4-{[6-(2-chlorophenyl)-5-oxo-5,6-dihydroimidazo[1,2-a]pyrimido[5,4-e]pyrimidin-2-yl]amino}benzoic acid], the Ki was more than 100 nM.

On to `COC(=O)c1ccc(Nc2ncc3c(=O)n(-c4c(Cl)cccc4Cl)c4nccn4c3n2)cc1` [Example 216, methyl 4-{[6-(2,6-dichlorophenyl)-5-oxo-5,6-dihydroimidazo[1,2-a]pyrimido[5,4-e]pyrimidin-2-yl]amino}benzoate], for which the Ki is less than 10 nM.

Take `CCN(CC)S(=O)(=O)c1ccc(Nc2ncc3c(=O)n(-c4ccccc4Cl)c4nccn4c3n2)cc1` [Example 294, 4-{[6-(2-chlorophenyl)-5-oxo-5,6-dihydroimidazo[1,2-a]pyrimido[5,4-e]pyrimidin-2-yl]amino}-N,N-diethylbenzenesulfonamide]: the Ki is 10 to 100 nM.

For `O=c1c2cnc(Nc3ccc(-n4cccn4)cc3)nc2n2ccnc2n1-c1ccccc1Cl` [Example 89, 6-(2-chlorophenyl)-2-{[4-(1H-pyrazol-1-yl)phenyl]amino}imidazo[1,2-a]pyrimido[5,4-e]pyrimidin-5(6H)-one], the Ki fell in the range of 10 to 100 nM.

In the case of `CN1CCN(c2ccc(Nc3ncc4c(=O)n(-c5c(Cl)cc(F)cc5Cl)c5nccn5c4n3)cc2)CC1` [Example 123, 6-(2,6-dichloro-4-fluorophenyl)-2-{[4-(4-methylpiperazin-1-yl)phenyl]amino}imidazo[1,2-a]pyrimido[5,4-e]pyrimidin-5(6H)-one], the Ki was less than 10 nM.

For the compound `COc1ccccc1-n1c(=O)c2cnc(Nc3ccc(N4CCN(C)CC4)cc3)nc2n2ccnc12` [Example 16, 6-(2-methoxyphenyl)-2-{[4-(4-methylpiperazin-1-yl)phenyl]amino}imidazo[1,2-a]pyrimido[5,4-e]pyrimidin-5(6H)-one], the Ki is 10 to 100 nM.

In the case of `CN1Cc2cc(Nc3ncc4c(=O)n(-c5c(Cl)cccc5Cl)c5nccn5c4n3)ccc2C1(C)C` [Example 178, 6-(2,6-dichlorophenyl)-2-[(1,1,2-trimethyl-2,3-dihydro-1H-isoindol-5-yl)amino]imidazo[1,2-a]pyrimido[5,4-e]pyrimidin-5(6H)-one], the inhibition constant Ki is less than 10 nM.

Regarding `O=c1c2cnc(Nc3ccc(N4CCN5CCCC5C4)cc3)nc2n2ccnc2n1-c1c(Cl)cccc1Cl` (centres unmarked) [Example 116, 6-(2,6-dichlorophenyl)-2-{[4-(hexahydropyrrolo[1,2-a]pyrazin-2(1H)-yl)phenyl]amino}imidazo[1,2-a]pyrimido[5,4-e]pyrimidin-5(6H)-one], the Ki was less than 10 nM.

As for `Cc1nnc2n(-c3ccccc3Cl)c(=O)c3cnc(Nc4ccc(N5CCN(C)CC5)cc4)nc3n12` [Example 27, 6-(2-chlorophenyl)-9-methyl-2-{[4-(4-methylpiperazin-1-yl)phenyl]amino}pyrimido[5,4-e][1,2,4]triazolo[4,3-a]pyrimidin-5(6H)-one], the Ki was 10 to 100 nM.

`COc1cc(Nc2ncc3c(=O)n(-c4c(Cl)cccc4Cl)c4nccn4c3n2)ccc1N1CCN(C(C)C)CC1` [Example 137, 6-(2,6-dichlorophenyl)-2-({3-methoxy-4-[4-(propan-2-yl)piperazin-1-yl]phenyl}amino)imidazo[1,2-a]pyrimido[5,4-e]pyrimidin-5(6H)-one]: the Ki was less than 10 nM.

On to `CC(C)S(=O)(=O)N1Cc2cc(Nc3ncc4c(=O)n(-c5c(Cl)cccc5Cl)c5nccn5c4n3)ccc2C2(CC2)C1` [Example 286, 6-(2,6-dichlorophenyl)-2-{[2′-(propan-2-ylsulfonyl)-2′,3′-dihydro-1′H-spiro[cyclopropane-1,4′-isoquinolin]-7′-yl]amino}imidazo[1,2-a]pyrimido[5,4-e]pyrimidin-5(6H)-one], for which the Ki was less than 10 nM.

Turning to `CS(=O)(=O)N1CCc2cc(Nc3ncc4c(=O)n(-c5c(Cl)cccc5Cl)c5nccn5c4n3)ccc2C1` [Example 330, 6-(2,6-dichlorophenyl)-2-{[2-(methylsulfonyl)-1,2,3,4-tetrahydroisoquinolin-6-yl]amino}imidazo[1,2-a]pyrimido[5,4-e]pyrimidin-5(6H)-one], the Ki is less than 10 nM.

Take `CC(C)NCCN(c1ccc(Nc2ncc3c(=O)n(-c4ccccc4Cl)c4nccn4c3n2)cc1)C(C)C` [Example 271, 6-(2-chlorophenyl)-2-[(4-{propan-2-yl[2-(propan-2-ylamino)ethyl]amino}phenyl)amino]imidazo[1,2-a]pyrimido[5,4-e]pyrimidin-5(6H)-one]: the inhibition constant (Ki) is less than 10 nM.

In the case of `O=C1CN(c2ccc(Nc3ncc4c(=O)n(-c5c(Cl)cccc5Cl)c5nccn5c4n3)cc2)CCN1` [Example 143, 6-(2,6-dichlorophenyl)-2-{[4-(3-oxopiperazin-1-yl)phenyl]amino}imidazo[1,2-a]pyrimido[5,4-e]pyrimidin-5(6H)-one], the Ki was less than 10 nM.

As for `CS(=O)(=O)N1CCC(Nc2ccc(Nc3ncc4c(=O)n(-c5c(Cl)cccc5Cl)c5nccn5c4n3)cc2)CC1` [Example 322, 6-(2,6-dichlorophenyl)-2-[(4-{[1-(methylsulfonyl)piperidin-4-yl]amino}phenyl)amino]imidazo[1,2-a]pyrimido[5,4-e]pyrimidin-5(6H)-one], the Ki is less than 10 nM.

As to `CN(C)C1CCC(OC(=O)c2ccc(Nc3ncc4c(=O)n(-c5c(Cl)cccc5Cl)c5nccn5c4n3)cc2)CC1` (centres unmarked) [Example 193, 4-(dimethylamino)cyclohexyl 4-{[6-(2,6-dichlorophenyl)-5-oxo-5,6-dihydroimidazo[1,2-a]pyrimido[5,4-e]pyrimidin-2-yl]amino}benzoate], the Ki was less than 10 nM.

In the case of `CN1CCCc2ccc(Nc3ncc4c(=O)n(-c5ccccc5Cl)c5nccn5c4n3)cc21` [Example 18, 6-(2-chlorophenyl)-2-[(1-methyl-1,2,3,4-tetrahydroquinolin-7-yl)amino]imidazo[1,2-a]pyrimido[5,4-e]pyrimidin-5(6H)-one], the Ki is 10 to 100 nM.

As for `CCCNC1Cc2ccc(Nc3ncc4c(=O)n(-c5c(F)cccc5Cl)c5nccn5c4n3)cc2C1` (centres unmarked) [Example 258, 6-(2-chloro-6-fluorophenyl)-2-{[2-(propylamino)-2,3-dihydro-1H-inden-5-yl]amino}imidazo[1,2-a]pyrimido[5,4-e]pyrimidin-5(6H)-one], the Ki is less than 10 nM.

Consider `CN1CCC(c2ccc(Nc3ncc4c(=O)n(-c5c(Cl)cccc5Cl)c5nccn5c4n3)cc2)CC1` [Example 287, 6-(2,6-dichlorophenyl)-2-{[4-(1-methylpiperidin-4-yl)phenyl]amino}imidazo[1,2-a]pyrimido[5,4-e]pyrimidin-5(6H)-one], for which the Ki is less than 10 nM.

On to `CN1Cc2cc(Nc3ncc4c(=O)n(-c5c(Cl)cccc5Cl)c5nccn5c4n3)ccc2C(C)(C)C1` [Example 152, 6-(2,6-dichlorophenyl)-2-[(2,4,4-trimethyl-1,2,3,4-tetrahydroisoquinolin-7-yl)amino]imidazo[1,2-a]pyrimido[5,4-e]pyrimidin-5(6H)-one], for which the inhibitory constant (Ki) was less than 10 nM.
